Assay results reported in paper PMC11217349, “Development of Nurr1 agonists from amodiaquine by scaffold hopping and fragment growing” (Communications Chemistry, 2024).
Values after ≈ are worked out from the molar mass of the structure shown. Values joined by “and” are separate entries in the source; they are usually repeats but may differ in a detail not shown here. Equal values may be shown once. Read-outs that look alike come from different tables or passages of the source.

Tests used:
NOR-1 = target: T1, NOR-1 (Homo sapiens, UniProt Q92570); assay: Gal4-NOR-1 hybrid reporter gene assay; type: cell-based; conditions: HEK293T
T1 construct: chimeric receptors composed of the Gal4-DBD and the hinge region and LBD; expressed in transfected cells; host or cells: HEK293T
T1 sequence (Q92570 394-623 limits assumed): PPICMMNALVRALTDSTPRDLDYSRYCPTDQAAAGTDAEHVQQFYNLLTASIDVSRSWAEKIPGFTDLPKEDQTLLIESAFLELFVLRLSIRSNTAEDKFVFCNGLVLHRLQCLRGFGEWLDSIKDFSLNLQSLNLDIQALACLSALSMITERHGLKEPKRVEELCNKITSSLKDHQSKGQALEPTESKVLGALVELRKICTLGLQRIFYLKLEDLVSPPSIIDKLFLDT
Description: Nurr1 modulation was determined in a Gal4 hybrid reporter gene assay in HEK293T cells (German Collection of Microorganisms and Cell Culture GmbH, DSMZ) using pFR-Luc (Stratagene, La Jolla, CA, USA; reporter), pRL-SV40 (Promega, Madison, WI, USA; internal control) and pFA-CMV-hNurr1-LBD[14], coding for the hinge region and ligand binding domain of the canonical isoform of human Nurr1. […] After 24 h, the medium was changed to Opti-MEM without supplements, and cells were transiently transfected using Lipofectamine LTX reagent (Invitrogen, Carlsbad, CA, USA) according to the manufacturer’s protocol. Five hours after transfection, cells were incubated with the test compounds in Opti-MEM supplemented with penicillin (100 U/mL), streptomycin (100 μg/mL), and 0.1% DMSO for 16 h before luciferase activity was measured using the Dual-Glo Luciferase Assay System (Promega) according to the manufacturer’s protocol on a Tecan Spark luminometer (Tecan Deutschland GmbH, Crailsheim, Germany). Firefly luminescence was divided by Renilla luminescence and multiplied by 1000 resulting in relative light units (RLU) to normalize for transfection efficiency and cell growth. Fold activation was obtained by dividing the mean RLU of the test compound by the mean RLU of the untreated control. All samples were tested in at least three biologically independent experiments in duplicates. For dose-response curve fitting and calculation of EC50 values, the equation “[Agonist] vs. response -- Variable slope (four parameters)” was used in GraphPad Prism (version 7.00, GraphPad Software, La Jolla, CA, USA). Selectivity profiling was performed with identical procedures using pFA-CMV-Nur77-LBD[14], pFA-CMV-NOR-1-LBD[14], pFA-CMV-THRα-LBD[51], pFA-CMV-RARα-LBD[52], pFA-CMV-PPARα-LBD[53], pFA-CMV-PPARγ-LBD[53], pFA-CMV-PPARδ-LBD[53], pFA-CMV-LXRα-LBD[54], pFA-CMV-FXR-LBD[55] and pFA-CMV-hRXRα-LBD[56].

Aqueous solubility = type: physicochemical; conditions: water, 25 °C, read-out: aq. solubility
Description: The mixture was agitated in a VWR Thermal Shake lite (VWR International GmbH, Darmstadt, Germany) for 24 h at 600 rpm and a constant temperature of 25 °C. The supersaturated mixtures were subsequently centrifuged at 23.300 rpm for 15 min (25 °C). Part of the supernatant was taken off for quantification by UV absorbance at 312 nm with external calibration. The external calibration samples contained 1% DMSO and the test samples were spiked with DMSO to 1% concentration right before the measurement. Absorbance was measured with a Tecan Spark luminometer (Tecan Deutschland GmbH, Crailsheim, Germany). The solubility test was repeated in three independent experiments.

[1] = tested on: human midbrain organoids from wildtype iPSC (isogenic control); assay: Midbrain organoid model, isogenic control; type: cell-based; conditions: immunostaining, fixed area
[2] = target: T2, Nurr1-RXR heterodimer (DR5) (Homo sapiens, UniProt P43354); assay: Full-length Nurr1 reporter gene assay (DR5); type: cell-based
T2 construct: The full-length human nuclear receptor Nurr1 (pcDNA3.1-hNurr1-NE; Addgene plasmid #102363); host or cells: HEK293T
T2 sequence (P43354 whole entry): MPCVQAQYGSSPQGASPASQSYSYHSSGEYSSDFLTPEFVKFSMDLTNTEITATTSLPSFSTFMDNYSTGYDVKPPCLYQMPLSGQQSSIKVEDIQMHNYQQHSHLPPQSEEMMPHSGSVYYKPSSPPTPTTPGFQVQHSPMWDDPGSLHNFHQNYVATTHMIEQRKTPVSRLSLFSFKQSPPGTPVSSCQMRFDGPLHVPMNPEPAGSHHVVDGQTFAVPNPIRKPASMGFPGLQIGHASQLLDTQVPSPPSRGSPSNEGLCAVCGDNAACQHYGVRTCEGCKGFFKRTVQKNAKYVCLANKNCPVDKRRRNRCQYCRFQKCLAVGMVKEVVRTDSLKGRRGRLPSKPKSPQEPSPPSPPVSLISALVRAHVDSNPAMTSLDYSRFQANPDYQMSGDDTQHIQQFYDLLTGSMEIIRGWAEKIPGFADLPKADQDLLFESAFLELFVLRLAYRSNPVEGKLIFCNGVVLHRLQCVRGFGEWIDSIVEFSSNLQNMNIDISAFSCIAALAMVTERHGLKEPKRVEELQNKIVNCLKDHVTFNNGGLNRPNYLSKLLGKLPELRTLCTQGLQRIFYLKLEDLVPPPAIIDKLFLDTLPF
T2 sequence (P19793 whole entry partner): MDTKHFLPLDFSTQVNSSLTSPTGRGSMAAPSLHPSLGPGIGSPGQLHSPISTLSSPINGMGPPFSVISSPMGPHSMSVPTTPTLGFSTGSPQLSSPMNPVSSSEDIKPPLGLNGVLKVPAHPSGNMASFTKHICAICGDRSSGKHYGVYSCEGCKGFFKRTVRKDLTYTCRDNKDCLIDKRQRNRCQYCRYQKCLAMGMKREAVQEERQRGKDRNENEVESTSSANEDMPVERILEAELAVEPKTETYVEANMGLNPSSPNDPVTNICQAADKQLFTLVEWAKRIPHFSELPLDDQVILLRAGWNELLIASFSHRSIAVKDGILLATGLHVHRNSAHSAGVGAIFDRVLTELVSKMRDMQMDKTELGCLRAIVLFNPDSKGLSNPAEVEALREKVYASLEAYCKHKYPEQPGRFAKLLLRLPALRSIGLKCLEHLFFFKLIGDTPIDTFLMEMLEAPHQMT
Description: Activation of full-length human Nurr1 was studied in transiently transfected HEK293T cells using the reporter plasmids pFR-Luc-NBRE[14], pFR-Luc-POMC[14] or pFR-Luc-DR5[14] each containing one copy of the respective human Nurr1 response element NBRE Nl3, NurRE, or DR5. […] After 24 h, the medium was changed to Opti-MEM without supplements, and cells were transiently transfected using Lipofectamine LTX reagent (Invitrogen) according to the manufacturer’s protocol. Five hours after transfection, cells were incubated with the test compounds in Opti-MEM supplemented with penicillin (100 U/mL), streptomycin (100 μg/mL) and 0.1% DMSO for 16 h before luciferase activity was measured using the Dual-Glo Luciferase Assay System (Promega) according to the manufacturer’s protocol on a Tecan Spark luminometer (Tecan Deutschland GmbH). Firefly luminescence was divided by Renilla luminescence and multiplied by 1000 resulting in relative light units (RLU) to normalize for transfection efficiency and cell growth. Fold activation was obtained by dividing the mean RLU of the test compound by the mean RLU of the untreated control. All samples were tested in at least three biologically independent experiments in duplicates. For dose-response curve fitting and calculation of EC50 values, the equation “[Agonist] vs. response -- Variable slope (four parameters)” was used in GraphPad Prism (version 7.00, GraphPad Software).

[3] = Parallel artificial membrane permeability assay (PAMPA); type: in vitro ADME; conditions: 500 µM donor, pH 7.4, 18 h
Description: Passive lipid membrane diffusion of test compounds was determined using Merck Millipore MultiScreen Filter Plates (0.45 μm pore diameter, hydrophobic PVDF). The filter inserts were coated with 1% L-α-phosphatidylcholine (Fluka Analytical) in n-dodecan. The test compounds were then added to the donor compartment at a final concentration of 500 µM in a phosphate buffer pH 7.4 containing 5% DMSO with a total volume of 150 µL. The acceptor compartment was filled with 300 µL PBS containing 5% DMSO. Additionally, three equilibrium samples were prepared by directly adding the donor solution to the acceptor compartment for the calculation of log Pe values. The filter plates were incubated for 18 h before the test compound concentrations in the acceptor compartments and in the equilibrium, samples were determined by UV absorbance at 320 nm (34), 360 nm (36), 310 nm (41), or 315 nm (42) with external calibration in a 96 well quartz plate on a SpectraMax M2e microplate reader (Molecular Devices). logPe values were calculated according to the formula published by Sugano and colleagues.

VDR = target: T3, VDR (Homo sapiens, UniProt P11473); assay: Gal4-hybrid selectivity assay VDR; type: cell-based; conditions: 3 µM; reference agonist = 100%
T3 construct: chimeric receptors composed of the Gal4-DBD and the hinge region and LBD; expressed in transfected cells; host or cells: HEK293T
T3 sequence (P11473 127-423 limits assumed): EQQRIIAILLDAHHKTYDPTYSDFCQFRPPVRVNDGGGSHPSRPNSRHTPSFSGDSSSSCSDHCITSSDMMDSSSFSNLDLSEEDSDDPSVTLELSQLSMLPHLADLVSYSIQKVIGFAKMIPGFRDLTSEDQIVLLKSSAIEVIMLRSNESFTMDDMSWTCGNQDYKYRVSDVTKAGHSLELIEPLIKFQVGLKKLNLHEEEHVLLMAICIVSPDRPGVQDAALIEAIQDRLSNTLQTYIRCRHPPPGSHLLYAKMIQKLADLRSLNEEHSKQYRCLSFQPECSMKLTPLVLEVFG

LXRα = target: T4, LXRα (Homo sapiens, UniProt Q13133); assay: Gal4-hybrid selectivity assay LXRα; type: cell-based; conditions: 3 µM; reference agonist = 100%
T4 construct: chimeric receptors composed of the Gal4-DBD and the hinge region and LBD; expressed in transfected cells; host or cells: HEK293T
T4 sequence (Q13133 209-447 limits assumed): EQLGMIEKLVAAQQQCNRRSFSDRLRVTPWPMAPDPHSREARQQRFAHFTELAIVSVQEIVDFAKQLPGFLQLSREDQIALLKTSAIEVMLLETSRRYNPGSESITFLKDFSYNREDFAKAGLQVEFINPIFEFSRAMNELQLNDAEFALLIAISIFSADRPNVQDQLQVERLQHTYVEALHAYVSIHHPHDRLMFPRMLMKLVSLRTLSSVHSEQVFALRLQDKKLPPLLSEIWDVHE
Description: (§1) Nurr1 modulation was determined in a Gal4 hybrid reporter gene assay in HEK293T cells (German Collection of Microorganisms and Cell Culture GmbH, DSMZ) using pFR-Luc (Stratagene, La Jolla, CA, USA; reporter), pRL-SV40 (Promega, Madison, WI, USA; internal control) and pFA-CMV-hNurr1-LBD[14], coding for the hinge region and ligand binding domain of the canonical isoform of human Nurr1. […] After 24 h, the medium was changed to Opti-MEM without supplements, and cells were transiently transfected using Lipofectamine LTX reagent (Invitrogen, Carlsbad, CA, USA) according to the manufacturer’s protocol. Five hours after transfection, cells were incubated with the test compounds in Opti-MEM supplemented with penicillin (100 U/mL), streptomycin (100 μg/mL), and 0.1% DMSO for 16 h before luciferase activity was measured using the Dual-Glo Luciferase Assay System (Promega) according to the manufacturer’s protocol on a Tecan Spark luminometer (Tecan Deutschland GmbH, Crailsheim, Germany). Firefly luminescence was divided by Renilla luminescence and multiplied by 1000 resulting in relative light units (RLU) to normalize for transfection efficiency and cell growth. Fold activation was obtained by dividing the mean RLU of the test compound by the mean RLU of the untreated control. All samples were tested in at least three biologically independent experiments in duplicates. […]

RXRα = target: T5, RXRα (Homo sapiens, UniProt P19793); assay: Gal4-hybrid selectivity assay RXRα; type: cell-based; conditions: 3 µM; reference agonist = 100%
T5 construct: chimeric receptors composed of the Gal4-DBD and the hinge region and LBD; expressed in transfected cells; host or cells: HEK293T
T5 sequence (P19793 227-458 limits assumed): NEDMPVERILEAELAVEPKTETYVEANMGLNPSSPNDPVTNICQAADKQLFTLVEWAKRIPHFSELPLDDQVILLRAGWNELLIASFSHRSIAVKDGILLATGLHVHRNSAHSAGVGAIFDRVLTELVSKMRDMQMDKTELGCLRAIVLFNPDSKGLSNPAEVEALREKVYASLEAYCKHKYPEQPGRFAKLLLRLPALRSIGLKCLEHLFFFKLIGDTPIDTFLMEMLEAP
Description: as §1

Row | EC50(NOR-1) (NOR-1) | solubility at 24 h (Aqueous solubility) [µg/mL] | EC50(DR5) ([2]; Nurr1-RXR heterodimer, HEK293T, without bexarotene) | % rel. act. VDR (VDR) | % rel. act. LXRα (LXRα) | % rel. act. RXRα (RXRα) | EC50 (NOR-1) [µM] | EC50 ([2]; EC50(DR5) [+0.1 µM BEX], Nurr1-RXR heterodimer, in presence of 0.1 µM bexarotene) [µM] | factor of potency enhancement by bexarotene (DR5) ([2]; EC50 with 0.1 µM BEX vs without) | EC50 ([2]; Nurr1-RXR heterodimer, HEK293T, without bexarotene, read-out: EC50(DR5)) [µM] | Structure (SMILES) | TH positive cells [1] | logPe (PAMPA) [3]
1 | no activation (10 µM) | 4.1 (≈ 11.7 µM) | no activation (10 µM) | – | – | – | – | – | – | – | Cc1nc2c(Cl)cccn2c1NC(=O)c1ccc(-c2ccccc2)[nH]1 [Compound 29, N-(8-Chloro-2-methylimidazo[1,2-a]pyridin-3-yl)-5-phenyl-1H-pyrrole-2-carboxamide] | 44 and 37 and 31 and 38 | –
2 | – | 6.8 (≈ 17.2 µM) | – | 4.840% and 6.730% and 2.930% | 2.022% and 2.102% and 1.670% | 0.348% and 0.360% and 0.470% | 0.11 ± 0.03 | 0.032 | > 5 | 0.165 ± 0.004 | Cc1nc2c(Cl)cccn2c1NC(=O)c1ccc(-c2ccc(N(C)C)cc2)o1 [Compound 36, N-(8-Chloro-2-methylimidazo[1,2-a]pyridin-3-yl)-5-(4-(dimethylamino)phenyl)furan-2-carboxamide] | 47 and 50 and 45 and 41 | -5.647 and -5.642 and -5.6601 and -5.6738
